# Data published in ChEMBL document CHEMBL1152710, “The design and discovery of novel amide CCR5 antagonists” (Bioorg Med Chem Lett, 2009).
# How the values were obtained:
# [1] = Lipophilicity, log D at pH 7.4; type: physicochemical; conditions: buffer
# [2] = Metabolic stability in human liver microsomes assessed as intrinsic clearance at 1 uM after 30 mins; type: ADME, Microsome
# [3] = test system: Human immunodeficiency virus 1; assay: Antiviral activity against HIV1 Bal infected in human PM1 cells assessed as inhibition of viral replication; type: functional; conditions: Human immunodeficiency virus 1, Bal
# [4] = target: T1, C-C chemokine receptor type 5 (Homo sapiens, UniProt P51681); assay: Antagonist activity at human recombinant CCR5 expressed in human HeLa-P4 cells assessed as inhibition of human HeLa-P4 cells binding to HIV1 gp160 expressing CHO cells at 10 uM by cell-cell fusion assay; type: cell-based; design: scale not given: the % may be the effect or the level left
# Target sequence in this assay (P51681 whole entry, looked up, the tested form may be a part): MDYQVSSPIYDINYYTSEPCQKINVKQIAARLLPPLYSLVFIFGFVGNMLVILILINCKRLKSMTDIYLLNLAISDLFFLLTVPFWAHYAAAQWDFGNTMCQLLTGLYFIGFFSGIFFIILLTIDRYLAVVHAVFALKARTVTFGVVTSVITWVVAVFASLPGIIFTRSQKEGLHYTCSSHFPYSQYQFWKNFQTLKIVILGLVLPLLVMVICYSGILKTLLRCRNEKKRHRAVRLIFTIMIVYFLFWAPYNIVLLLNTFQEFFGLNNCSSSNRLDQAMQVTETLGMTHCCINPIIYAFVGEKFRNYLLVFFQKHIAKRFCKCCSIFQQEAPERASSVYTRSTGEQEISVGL
# [5] = target: T1, C-C chemokine receptor type 5; assay: Antagonist activity at human recombinant CCR5 expressed in human HeLa-P4 cells assessed as inhibition of human HeLa-P4 cells binding to HIV1 gp160 expressing CHO cells at 1 uM by cell-cell fusion assay; type: cell-based; design: scale not given: the % may be the effect or the level left
# Target sequence in this assay (P51681 whole entry, looked up, the tested form may be a part): as above
# [6] = target: T1, C-C chemokine receptor type 5; assay: Antagonist activity at human recombinant CCR5 expressed in human HeLa-P4 cells assessed as inhibition of human HeLa-P4 cells binding to HIV1 gp160 expressing CHO cells at 100 nM by cell-cell fusion assay; type: cell-based; design: scale not given: the % may be the effect or the level left
# Target sequence in this assay (P51681 whole entry, looked up, the tested form may be a part): as above
# [7] = target: Voltage-gated inwardly rectifying potassium channel KCNH2 (Homo sapiens, UniProt Q12809); assay: Displacement of [3H]dofetilide form human ERG expressed in HEK239 cells
# [8] = target: T1, C-C chemokine receptor type 5; assay: Displacement of [125]Mip1beta form CCR5 receptor expressed in MIP34.10 cells; type: cell-based
# Target sequence in this assay (P51681 whole entry, the tested form may be a part): as the sequence (P51681 whole entry, looked up, the tested form may be a part) above
# Voltage-gated inwardly rectifying potassium channel KCNH2, sequence (Q12809 whole entry): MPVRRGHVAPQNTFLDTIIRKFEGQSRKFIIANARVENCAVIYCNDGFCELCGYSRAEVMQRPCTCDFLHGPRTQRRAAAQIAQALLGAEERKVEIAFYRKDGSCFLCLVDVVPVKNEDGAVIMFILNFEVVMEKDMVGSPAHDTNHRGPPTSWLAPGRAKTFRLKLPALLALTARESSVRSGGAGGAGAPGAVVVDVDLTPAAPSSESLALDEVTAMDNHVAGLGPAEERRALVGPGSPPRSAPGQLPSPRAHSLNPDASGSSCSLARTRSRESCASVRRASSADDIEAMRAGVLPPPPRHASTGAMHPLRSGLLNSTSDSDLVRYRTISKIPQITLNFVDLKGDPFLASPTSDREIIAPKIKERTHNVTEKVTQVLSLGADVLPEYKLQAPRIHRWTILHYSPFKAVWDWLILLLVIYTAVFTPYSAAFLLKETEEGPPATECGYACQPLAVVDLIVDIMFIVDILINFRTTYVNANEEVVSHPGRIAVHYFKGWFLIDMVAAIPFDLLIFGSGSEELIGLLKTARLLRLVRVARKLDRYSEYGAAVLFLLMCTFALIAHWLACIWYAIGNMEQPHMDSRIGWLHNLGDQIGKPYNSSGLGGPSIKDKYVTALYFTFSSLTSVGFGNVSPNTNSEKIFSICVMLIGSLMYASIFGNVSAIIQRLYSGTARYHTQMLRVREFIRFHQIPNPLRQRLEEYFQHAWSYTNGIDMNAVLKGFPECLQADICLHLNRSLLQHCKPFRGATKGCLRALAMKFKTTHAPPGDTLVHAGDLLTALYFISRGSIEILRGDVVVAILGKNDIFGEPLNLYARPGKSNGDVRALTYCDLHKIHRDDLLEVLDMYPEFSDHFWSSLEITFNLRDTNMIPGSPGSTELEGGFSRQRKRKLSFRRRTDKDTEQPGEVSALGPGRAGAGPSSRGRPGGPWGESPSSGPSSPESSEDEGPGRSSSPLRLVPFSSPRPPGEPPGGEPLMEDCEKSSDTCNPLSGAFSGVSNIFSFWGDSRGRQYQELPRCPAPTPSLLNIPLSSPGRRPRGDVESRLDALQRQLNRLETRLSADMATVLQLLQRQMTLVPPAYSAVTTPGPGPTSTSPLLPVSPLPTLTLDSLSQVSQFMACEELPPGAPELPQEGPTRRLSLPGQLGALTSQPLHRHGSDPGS
structure (smiles),measurement,setting,value
Cc1cccc(C)c1C(=O)N1CCC(N2CCC(N(Cc3ccccc3)C(=O)C3CCC3)CC2)CC1,logD,[1],3.5
same,microsomal CLint at 1 µM,[2],205 µL/min/mg
same,IC90,[3],40 nM
Cc1ccnc(C)c1C(=O)N1[C@@H]2CC[C@H]1C[C@@H](N1CCN(C(c3ccccc3)c3ccccc3)CC1)C2,Activity,[4],21%
Cc1ccnc(C)c1C(=O)N1CCC(N2CCC(CNC(=O)C3CC3)(Cc3ccccc3)CC2)CC1,Activity,[5],18%
"CC(=O)NC(c1ccccc1)C1CCCN(C2CCN(C(=O)c3c(C)cccc3C)CC2)C1 (single isomer, unassigned; diastereomer 1)",Activity,[4],28%
Cc1ccnc(C)c1C(=O)N1CCN(C2C[C@H]3CC[C@@H](C2)N3C(c2ccccc2)c2ccccc2)CC1 (mixture of isomers),Activity,[4],25%
CC(=O)NC(CN1CC(N(C)C2CCN(C(=O)c3c(C)cccc3C)CC2)C1)c1ccccc1 (centres undefined),Activity,[4],50%
Cc1ccnc(C)c1C(=O)N1CCC(N2CCC(C(Cc3ccccc3)C(=O)NCC3CC3)CC2)CC1 (centres undefined),Activity,[4],20%
"CC(=O)NC(c1ccccc1)C1CCCN(C2CCN(C(=O)c3c(C)cccc3C)CC2)C1 (single isomer, unassigned; diastereomer 2)",Activity,[4],0%
Cc1cccc(C)c1C(=O)N1CCC(N2CCCC(N(Cc3ccccc3)C(=O)C3CC3)C2)CC1 (racemic),Activity,[4],19%
"CC(=O)NC(c1ccccc1)C1CCCN(CCNC(=O)c2c(C)cccc2C)C1 (single isomer, unassigned; diastereomer 2)",Activity,[4],12%
"CC(=O)NC(c1ccccc1)[C@H]1CCN(C2CCN(C(=O)c3c(C)cccc3C)CC2)C1 (single isomer, unassigned; diastereomer 2)",Activity,[4],0%
"CC(=O)NC(c1ccccc1)[C@H]1CCN(C2CCN(C(=O)c3c(C)cccc3C)CC2)C1 (single isomer, unassigned; diastereomer 1)",Activity,[5],18%
Cc1ccnc(C)c1C(=O)N1C2CCC1CN(C1CCN(C(c3ccccc3)c3ccccc3)CC1)C2,Activity,[6],12%
CC(=O)NC1(c2ccccc2)CCN(C2CCN(C(=O)c3c(C)ccnc3C)CC2)CC1,Activity,[4],20%
Cc1cccc(C)c1C(=O)N1CCC(N2CCCC(CC(NC(=O)C3CCC3)c3ccccc3)C2)CC1 (mixture of isomers),Activity,[4],20%
Cc1ccnc(C)c1C(=O)N1CCC(N(C)CCC(c2ccccc2)c2ccccc2)CC1,Activity,[6],13%
Cc1ccnc(C)c1C(=O)N1CCN(CCC(c2ccccc2)c2ccccc2)CC1,Activity,[4],0%
Cc1ccnc(C)c1C(=O)NCCN1CCN(C(c2ccccc2)c2ccccc2)CC1,Activity,[6],15%
"CC(=O)NC(c1ccccc1)C1CCCN(CCNC(=O)c2c(C)cccc2C)C1 (single isomer, unassigned; diastereomer 1)",Activity,[4],20%
Cc1cccc(C)c1C(=O)N1CCC(N2[C@@H]3CC[C@H]2C[C@H](N(Cc2ccccc2)C(=O)C2CC2)C3)CC1,Activity,[5],10%
Cc1ccnc(C)c1C(=O)N1[C@@H]2CC[C@H]1C[C@H](N1CCN(C(c3ccccc3)c3ccccc3)CC1)C2,Activity,[6],6%
Cc1cccc(C)c1C(=O)N1CCC(N(C)C2CN(C(CNC(=O)C3CCC3)c3ccccc3)C2)CC1 (centres undefined),Activity,[4],20%
Cc1cccc(C)c1C(=O)N1CCC(N2CC[C@@H](N(Cc3ccccc3)C(=O)C3CC3)C2)CC1,logD,[1],2.6
same,IC50,[7],9800 nM
same,IC50,[8],8 nM
same,microsomal CLint at 1 µM,[2],195 µL/min/mg
same,IC90,[3],2 nM
